Reference: publication PMC6199744, “Development of Chemical Proteomics for the Folateome and Analysis of the Kinetoplastid Folateome” (ACS Infectious Diseases, 2018)
Where two headings read alike, the source gives them in different places.

What was measured:
Type in all cases: binding
[1] = molecular target: T1, HeLa cell extract proteins (Homo sapiens, UniProt P43686)
T1 construct: endogenous in cells; host or cells: HeLa cell extract

[2] = molecular target: T2, HeLa cell extract proteins (Homo sapiens, UniProt P60981)
T2 construct: endogenous in cells; host or cells: HeLa cell extract
T2 sequence (P60981 1-165): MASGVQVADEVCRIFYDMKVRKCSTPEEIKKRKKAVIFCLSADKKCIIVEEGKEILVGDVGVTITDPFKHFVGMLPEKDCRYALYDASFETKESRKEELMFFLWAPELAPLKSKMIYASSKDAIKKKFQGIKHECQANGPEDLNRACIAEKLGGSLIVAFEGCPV

[3] = molecular target: T3, HeLa cell extract proteins (Homo sapiens, UniProt Q6PJT7)
T3 construct: endogenous in cells; host or cells: HeLa cell extract
T3 sequence (Q6PJT7 1-736): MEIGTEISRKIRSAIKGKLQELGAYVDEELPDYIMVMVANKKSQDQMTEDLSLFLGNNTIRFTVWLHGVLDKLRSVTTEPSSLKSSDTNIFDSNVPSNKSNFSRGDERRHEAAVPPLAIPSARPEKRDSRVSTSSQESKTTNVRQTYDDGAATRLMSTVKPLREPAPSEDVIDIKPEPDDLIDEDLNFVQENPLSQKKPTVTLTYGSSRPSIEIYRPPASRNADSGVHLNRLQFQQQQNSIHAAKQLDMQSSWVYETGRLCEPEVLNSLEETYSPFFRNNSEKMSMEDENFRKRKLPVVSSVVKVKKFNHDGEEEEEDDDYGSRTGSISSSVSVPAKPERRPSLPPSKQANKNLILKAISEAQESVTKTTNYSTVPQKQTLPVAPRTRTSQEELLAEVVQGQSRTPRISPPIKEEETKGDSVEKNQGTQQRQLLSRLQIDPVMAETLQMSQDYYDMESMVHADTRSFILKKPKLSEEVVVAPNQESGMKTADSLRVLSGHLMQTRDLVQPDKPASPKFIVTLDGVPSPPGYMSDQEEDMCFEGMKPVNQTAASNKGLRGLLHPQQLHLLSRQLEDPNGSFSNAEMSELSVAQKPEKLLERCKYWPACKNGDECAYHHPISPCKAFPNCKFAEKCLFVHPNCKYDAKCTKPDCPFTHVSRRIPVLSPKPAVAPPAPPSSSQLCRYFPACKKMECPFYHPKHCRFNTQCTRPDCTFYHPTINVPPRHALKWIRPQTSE

[4] = molecular target: T4, HeLa cell extract proteins (Homo sapiens, UniProt P33993)
T4 construct: endogenous in cells; host or cells: HeLa cell extract
T4 sequence (P33993 whole entry): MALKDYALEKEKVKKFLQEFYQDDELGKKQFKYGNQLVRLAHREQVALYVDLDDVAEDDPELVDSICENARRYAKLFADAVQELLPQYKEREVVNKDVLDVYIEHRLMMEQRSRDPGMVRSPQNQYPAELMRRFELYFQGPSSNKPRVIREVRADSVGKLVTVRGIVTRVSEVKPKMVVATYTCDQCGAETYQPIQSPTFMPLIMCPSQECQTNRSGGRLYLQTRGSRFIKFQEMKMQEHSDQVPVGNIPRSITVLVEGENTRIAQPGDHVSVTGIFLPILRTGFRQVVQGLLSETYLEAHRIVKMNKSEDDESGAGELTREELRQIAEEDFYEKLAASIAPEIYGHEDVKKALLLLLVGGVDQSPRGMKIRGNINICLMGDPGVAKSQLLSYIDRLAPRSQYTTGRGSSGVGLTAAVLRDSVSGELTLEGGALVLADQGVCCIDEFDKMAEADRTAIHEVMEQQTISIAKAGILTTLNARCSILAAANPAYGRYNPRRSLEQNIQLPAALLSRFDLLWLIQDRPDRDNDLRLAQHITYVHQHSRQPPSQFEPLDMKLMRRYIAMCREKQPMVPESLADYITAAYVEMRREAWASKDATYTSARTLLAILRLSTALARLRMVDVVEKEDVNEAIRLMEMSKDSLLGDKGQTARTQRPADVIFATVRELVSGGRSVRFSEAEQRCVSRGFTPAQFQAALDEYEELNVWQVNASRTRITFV

[5] = molecular target: T5, HeLa cell extract proteins (Homo sapiens, UniProt P54819)
T5 construct: endogenous in cells; host or cells: HeLa cell extract

[6] = molecular target: T6, HeLa cell extract proteins (Homo sapiens, UniProt P30040)
T6 construct: endogenous in cells; host or cells: HeLa cell extract

[7] = molecular target: T7, HeLa cell extract proteins (Homo sapiens, UniProt Q7Z4G4)
T7 construct: endogenous in cells; host or cells: HeLa cell extract
T7 sequence (Q7Z4G4 1-463): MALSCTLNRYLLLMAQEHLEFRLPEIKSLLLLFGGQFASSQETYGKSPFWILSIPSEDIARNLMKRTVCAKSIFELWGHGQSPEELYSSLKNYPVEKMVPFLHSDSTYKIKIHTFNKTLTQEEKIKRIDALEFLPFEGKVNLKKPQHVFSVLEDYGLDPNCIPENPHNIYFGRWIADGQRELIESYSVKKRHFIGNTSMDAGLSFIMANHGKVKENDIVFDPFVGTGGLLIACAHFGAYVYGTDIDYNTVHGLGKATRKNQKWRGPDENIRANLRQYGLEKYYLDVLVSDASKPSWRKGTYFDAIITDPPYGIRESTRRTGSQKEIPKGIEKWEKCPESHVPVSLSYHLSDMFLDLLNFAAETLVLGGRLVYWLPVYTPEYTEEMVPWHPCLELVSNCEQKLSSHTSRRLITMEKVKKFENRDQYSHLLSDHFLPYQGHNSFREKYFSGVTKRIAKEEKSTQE

[8] = molecular target: T8, HeLa cell extract proteins (Homo sapiens, UniProt P04406)
T8 construct: endogenous in cells; host or cells: HeLa cell extract
T8 sequence (P04406 whole entry): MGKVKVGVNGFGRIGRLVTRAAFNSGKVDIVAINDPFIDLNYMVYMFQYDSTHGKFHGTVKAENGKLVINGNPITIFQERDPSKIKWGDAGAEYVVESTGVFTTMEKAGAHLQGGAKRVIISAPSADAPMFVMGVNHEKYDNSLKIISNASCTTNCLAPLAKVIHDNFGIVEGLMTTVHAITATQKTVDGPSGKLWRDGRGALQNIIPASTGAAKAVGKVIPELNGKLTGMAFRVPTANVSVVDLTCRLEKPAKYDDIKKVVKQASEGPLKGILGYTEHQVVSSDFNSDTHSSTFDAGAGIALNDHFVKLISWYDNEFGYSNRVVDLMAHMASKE

[9] = molecular target: T9, HeLa cell extract proteins (Homo sapiens, UniProt P50991)
T9 construct: endogenous in cells; host or cells: HeLa cell extract
T9 sequence (P50991 1-539): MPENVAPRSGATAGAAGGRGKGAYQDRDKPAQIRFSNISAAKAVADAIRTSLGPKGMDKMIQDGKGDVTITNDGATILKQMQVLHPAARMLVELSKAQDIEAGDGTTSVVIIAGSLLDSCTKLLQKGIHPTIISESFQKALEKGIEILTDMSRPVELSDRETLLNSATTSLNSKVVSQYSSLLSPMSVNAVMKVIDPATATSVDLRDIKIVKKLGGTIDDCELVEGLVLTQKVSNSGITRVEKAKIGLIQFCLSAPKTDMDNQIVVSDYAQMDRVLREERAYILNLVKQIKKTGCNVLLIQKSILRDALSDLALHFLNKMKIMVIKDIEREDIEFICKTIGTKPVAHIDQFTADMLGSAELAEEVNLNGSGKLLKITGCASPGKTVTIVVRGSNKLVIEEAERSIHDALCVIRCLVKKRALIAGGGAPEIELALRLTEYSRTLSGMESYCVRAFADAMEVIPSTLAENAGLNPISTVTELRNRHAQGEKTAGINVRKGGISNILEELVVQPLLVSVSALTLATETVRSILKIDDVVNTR

[10] = molecular target: T10, HeLa cell extract proteins (Homo sapiens, UniProt Q96CW5)
T10 construct: endogenous in cells; host or cells: HeLa cell extract
T10 sequence (Q96CW5 whole entry): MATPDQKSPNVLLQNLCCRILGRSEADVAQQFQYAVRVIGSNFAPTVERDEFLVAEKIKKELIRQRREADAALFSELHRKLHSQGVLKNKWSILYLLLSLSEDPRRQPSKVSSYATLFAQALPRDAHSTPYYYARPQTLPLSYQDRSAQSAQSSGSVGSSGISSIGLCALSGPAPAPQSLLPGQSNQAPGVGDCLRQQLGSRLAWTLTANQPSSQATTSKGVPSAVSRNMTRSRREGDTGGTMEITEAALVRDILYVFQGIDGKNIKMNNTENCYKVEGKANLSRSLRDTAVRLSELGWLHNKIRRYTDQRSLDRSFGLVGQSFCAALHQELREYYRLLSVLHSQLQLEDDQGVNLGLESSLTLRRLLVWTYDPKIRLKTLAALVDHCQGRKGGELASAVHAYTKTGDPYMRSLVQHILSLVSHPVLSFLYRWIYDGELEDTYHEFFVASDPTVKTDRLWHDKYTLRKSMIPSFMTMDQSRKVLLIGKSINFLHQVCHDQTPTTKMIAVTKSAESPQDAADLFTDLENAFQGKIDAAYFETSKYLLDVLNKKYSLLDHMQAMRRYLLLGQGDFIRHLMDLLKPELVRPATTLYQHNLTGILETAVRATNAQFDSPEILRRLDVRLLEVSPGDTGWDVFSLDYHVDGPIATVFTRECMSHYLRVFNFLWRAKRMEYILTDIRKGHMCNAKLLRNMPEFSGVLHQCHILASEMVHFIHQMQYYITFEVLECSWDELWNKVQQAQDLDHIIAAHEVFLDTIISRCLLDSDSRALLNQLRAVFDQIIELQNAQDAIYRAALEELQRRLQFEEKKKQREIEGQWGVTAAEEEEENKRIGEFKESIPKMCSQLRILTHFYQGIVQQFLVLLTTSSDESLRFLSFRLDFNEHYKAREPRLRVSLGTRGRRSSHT

[11] = molecular target: T11, HeLa cell extract proteins (Homo sapiens, UniProt P31948)
T11 construct: endogenous in cells; host or cells: HeLa cell extract
T11 sequence (P31948 whole entry): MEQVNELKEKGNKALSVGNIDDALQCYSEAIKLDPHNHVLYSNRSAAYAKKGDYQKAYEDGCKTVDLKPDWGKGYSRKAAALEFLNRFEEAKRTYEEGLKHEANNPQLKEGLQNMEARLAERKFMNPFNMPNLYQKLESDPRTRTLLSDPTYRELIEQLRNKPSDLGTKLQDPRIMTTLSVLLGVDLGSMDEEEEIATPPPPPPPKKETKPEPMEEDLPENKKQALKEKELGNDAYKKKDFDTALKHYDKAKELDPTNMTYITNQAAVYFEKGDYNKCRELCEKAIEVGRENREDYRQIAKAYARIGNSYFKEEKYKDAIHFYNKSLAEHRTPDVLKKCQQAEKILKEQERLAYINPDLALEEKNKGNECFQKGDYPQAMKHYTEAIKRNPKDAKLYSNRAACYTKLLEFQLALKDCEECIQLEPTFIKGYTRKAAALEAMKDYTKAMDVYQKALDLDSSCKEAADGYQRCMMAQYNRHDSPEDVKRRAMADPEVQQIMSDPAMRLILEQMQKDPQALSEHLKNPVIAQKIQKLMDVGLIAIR

[12] = molecular target: T12, HeLa cell extract proteins (Homo sapiens, UniProt P12956)
T12 construct: endogenous in cells; host or cells: HeLa cell extract
T12 sequence (P12956 whole entry): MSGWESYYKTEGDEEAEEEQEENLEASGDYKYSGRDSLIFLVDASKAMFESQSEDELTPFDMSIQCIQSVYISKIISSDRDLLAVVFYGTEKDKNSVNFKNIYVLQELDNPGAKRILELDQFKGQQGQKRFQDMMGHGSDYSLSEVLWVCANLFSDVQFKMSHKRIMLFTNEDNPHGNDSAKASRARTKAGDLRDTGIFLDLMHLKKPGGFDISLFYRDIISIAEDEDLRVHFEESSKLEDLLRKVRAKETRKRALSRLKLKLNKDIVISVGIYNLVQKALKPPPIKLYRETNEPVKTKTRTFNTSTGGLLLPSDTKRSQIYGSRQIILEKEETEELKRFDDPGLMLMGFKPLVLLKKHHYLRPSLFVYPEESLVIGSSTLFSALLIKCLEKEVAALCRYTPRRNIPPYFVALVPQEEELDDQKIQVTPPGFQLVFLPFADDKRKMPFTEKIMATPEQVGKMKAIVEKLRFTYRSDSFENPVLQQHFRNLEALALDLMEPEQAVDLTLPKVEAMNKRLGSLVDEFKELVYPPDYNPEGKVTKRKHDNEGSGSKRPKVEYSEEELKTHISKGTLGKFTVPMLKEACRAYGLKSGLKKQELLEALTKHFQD

[13] = molecular target: T13, HeLa cell extract proteins (Homo sapiens, UniProt Q96EY8)
T13 construct: endogenous in cells; host or cells: HeLa cell extract
T13 sequence (Q96EY8 33-250): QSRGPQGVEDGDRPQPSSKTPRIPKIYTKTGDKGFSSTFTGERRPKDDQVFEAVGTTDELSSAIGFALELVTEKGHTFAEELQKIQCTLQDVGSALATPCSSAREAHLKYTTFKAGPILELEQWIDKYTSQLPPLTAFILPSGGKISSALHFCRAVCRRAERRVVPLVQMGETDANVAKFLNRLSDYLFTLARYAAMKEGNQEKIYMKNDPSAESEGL

[14] = HeLa, protein G3P1_HUMAN (GLYCERALDEHYDE-3-PHOSPHATE DEHYDROGENASE, MUSCLE.)
[15] = HeLa, protein GAPDH (39 KDA PROTEIN.)

T1 sequence (P43686 whole entry): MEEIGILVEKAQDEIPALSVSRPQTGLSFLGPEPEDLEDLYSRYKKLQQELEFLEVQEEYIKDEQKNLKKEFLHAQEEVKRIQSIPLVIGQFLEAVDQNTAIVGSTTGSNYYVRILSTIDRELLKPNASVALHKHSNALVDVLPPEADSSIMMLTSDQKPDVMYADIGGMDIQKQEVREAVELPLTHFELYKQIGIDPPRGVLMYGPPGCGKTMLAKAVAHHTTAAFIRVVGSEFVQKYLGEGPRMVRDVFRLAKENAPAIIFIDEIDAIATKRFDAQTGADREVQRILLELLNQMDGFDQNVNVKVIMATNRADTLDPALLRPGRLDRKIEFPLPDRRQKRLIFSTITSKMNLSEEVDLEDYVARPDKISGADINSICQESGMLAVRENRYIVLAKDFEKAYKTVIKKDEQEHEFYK

Structure (SMILES)	fold changes relative to vehicle control ([1]; protein PSMC4, HeLa)	fold changes relative to vehicle control ([2]; HeLa, protein DSTN)	fold changes relative to vehicle control ([3]; HeLa, captured protein ZC3H14)	fold changes relative to vehicle control ([4]; protein MCM7, HeLa)	fold changes relative to vehicle control ([5]; protein AK2, HeLa)	fold changes relative to vehicle control ([6]; protein ERP29, HeLa)	fold changes relative to vehicle control ([7]; HeLa, captured protein TRMT11)	fold changes relative to vehicle control ([8]; protein GAPDH, HeLa)	fold changes relative to vehicle control ([9]; protein CCT4, HeLa)	fold changes relative to vehicle control ([10]; HeLa, protein TUBGCP3)	fold changes relative to vehicle control ([11]; protein STIP1, HeLa)	fold changes relative to vehicle control ([12]; HeLa, protein XRCC6)	fold changes relative to vehicle control ([13]; HeLa, protein MMAB (COB))	fold changes relative to vehicle control ([2]; HeLa, protein DSTN (DESTRIN.)) [fold]	fold changes relative to vehicle control ([3]; captured protein ZC3H14, HeLa)	fold changes relative to vehicle control ([5]; captured protein AK2, HeLa)	fold changes relative to vehicle control ([7]; HeLa, protein TRMT11)	fold changes relative to vehicle control [8, 14] [fold]	fold changes relative to vehicle control [8, 15] [fold]	fold changes relative to vehicle control ([10]; captured protein TUBGCP3, HeLa)	other results
Nc1nc2c(c(=O)[nH]1)N(C=O)C(CNc1ccc(C(=O)N[C@@H](CCC(=O)O)C(=O)O)cc1)CN2 (stereo partly shown) [LEU, leucovorin]	0.97	0.96	1	0.91	0.99	0.97	1.15	1.01	1	0.87	0.97	0.96	0.99	–	–	–	–	–	–	–	–
NCCCNc1ccc(C(=O)NC(CCC(=O)O)C(=O)O)cc1 (stereo not shown) [compound 7]	0.98	0.91	1.04	1.14	1.08	0.88	1.07	0.97	0.94	1.01	0.92	0.92	0.94	–	–	–	–	–	–	–	–
CCCCCCOc1cccc(Cc2cnc(N)nc2N)c1 [compound 2]	1.33	–	–	1.47	–	1.77	–	–	1.73	–	1.49	–	–	2.07	0.94	1	1.19	2.61	2.46	1.05	fold changes relative to vehicle control ([12]; protein XRCC6, HeLa): 1.93; fold changes relative to vehicle control ([13]; HeLa, protein MMAB): 0.94
CCCCCCOc1ccc(Cc2cnc(N)nc2N)cc1 [compound 1]	1.13	–	–	1.06	–	1.29	–	–	1.25	–	1.02	–	–	1.28	0.83	1.04	1.13	1.39	1.52	0.94	fold changes relative to vehicle control ([12]; protein XRCC6, HeLa): 1.13; fold changes relative to vehicle control ([13]; HeLa, protein MMAB): 0.95
Nc1nc2cccc(-c3ccccc3)c2n1Cc1ccc(Cl)c(Cl)c1 [compound 3]	1.04	–	–	1.24	–	0.94	–	–	1	–	0.87	–	–	1.09	0.96	0.91	0.96	0.84	0.95	1.02	fold changes relative to vehicle control ([12]; protein XRCC6, HeLa): 0.92; fold changes relative to vehicle control ([13]; HeLa, protein MMAB): 0.96
NCCOCCOCC(=O)Nc1nc2ncc(CNc3ccc(C(=O)NC(CCC(=O)O)C(=O)O)cc3)nc2c(=O)[nH]1 (stereo not shown) [compound 6]	1.13	1.16	0.99	1.16	0.95	1.24	0.86	1.35	1.14	1	1.13	1.09	0.51	–	–	–	–	–	–	–	–
Nc1nc2[nH]cc(CCc3ccc(C(=O)N[C@@H](CCC(=O)O)C(=O)O)cc3)c2c(=O)[nH]1 [PTX, pemetrexed]	–	–	–	–	–	–	–	–	–	–	–	–	–	–	–	–	–	–	–	–	fold changes relative to vehicle control [1]: 1.01; fold changes relative to vehicle control [2]: 1.05; fold changes relative to vehicle control [3]: 0.95; fold changes relative to vehicle control [4]: 0.96; fold changes relative to vehicle control [5]: 0.86; fold changes relative to vehicle control [6]: 0.96; fold changes relative to vehicle control [7]: 0.85; fold changes relative to vehicle control [8]: 1.14; fold changes relative to vehicle control [9]: 1.01; fold changes relative to vehicle control [10]: 1.06; fold changes relative to vehicle control [11]: 1.01; fold changes relative to vehicle control [12]: 1.02; fold changes relative to vehicle control [13]: 0.85
